Data from patent publication US8394848B2, “Compounds that modulate intracellular calcium” (Calcimedica, Inc., priority 2008, dated 2013).

Tested on: JR251 or RBL cells
Assay: Store-operated calcium entry, either JR251 or RBL cells, or both
Type: cell-based
How it was run: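 FLIPR calcium-entry readout in fluo-4-loaded cells held in Ca2+-free HBSS before calcium add-back. For RBL-2H3, store depletion used thapsigargin for 25 min after a 5 min compound pre-incubation, and IC50 was based on the 7 s Upslope. For Orai1/STIM1 stable cells, compound was pre-incubated 30 min and IC50 was based on Peak-Basal.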

| SMILES | IC50 |
| --- | --- |
| O=C(CCCCc1ccccc1)Nc1scc(-c2ccc(Cl)cc2)c1C(=O)O [4-(4-chlorophenyl)-2-(5-phenylpentanamido)thiophene-3-carboxylic acid] | < 10 µM |
| O=C(Nc1scc(-c2ccc(Cl)cc2)c1C(=O)O)c1ncc(-c2ccccc2)cn1 [4-(4-chlorophenyl)-2-(5-phenylpyrimidine-2-carboxamido)thiophene-3-carboxylic acid] | < 10 µM |
| O=C(Nc1scc(-c2ccc(Cl)cc2)c1C(=O)O)c1ccc(-c2ccccc2)s1 [4-(4-chlorophenyl)-2-(5-phenylthiophene-2-carboxamido)thiophene-3-carboxylic acid] | < 10 µM |
| O=C(Nc1scc(-c2ccc(Cl)cc2)c1C(=O)O)c1ccc(C(F)(F)F)nc1 [4-(4-chlorophenyl)-2-(6-(trifluoromethyl)nicotinamido)thiophene-3-carboxylic acid] | < 10 µM |
| O=C(Nc1scc(-c2ccc(Cl)cc2)c1C(=O)O)c1ccc(Cl)nn1 [4-(4-chlorophenyl)-2-(6-chloropyridazine-3-carboxamido)thiophene-3-carboxylic acid] | < 10 µM |
| O=C(Nc1scc(-c2ccc(Cl)cc2)c1C(=O)O)c1nc2ccc(F)cc2o1 [4-(4-chlorophenyl)-2-(6-fluorobenzo[d]oxazole-2-carboxamido)thiophene-3-carboxylic acid] | < 10 µM |
| COc1cccc(C(=O)Nc2scc(-c3ccc(Cl)cc3)c2C(=O)O)n1 [4-(4-chlorophenyl)-2-(6-methoxypicolinamido)thiophene-3-carboxylic acid] | < 10 µM |
| Cc1ccc(C(=O)Nc2scc(-c3ccc(Cl)cc3)c2C(=O)O)cn1 [4-(4-chlorophenyl)-2-(6-methylnicotinamido)thiophene-3-carboxylic acid] | < 10 µM |
| O=C(Nc1scc(-c2ccc(Cl)cc2)c1C(=O)O)c1nc2ccc([N+](=O)[O-])cc2s1 [4-(4-chlorophenyl)-2-(6-nitrobenzo[d]thiazole-2-carboxamido)thiophene-3-carboxylic acid] | < 10 µM |
| N#Cc1cccc2nc(C(=O)Nc3scc(-c4ccc(Cl)cc4)c3C(=O)O)oc12 [4-(4-chlorophenyl)-2-(7-cyanobenzo[d]oxazole-2-carboxamido)thiophene-3-carboxylic acid] | < 10 µM |
| O=C(Nc1scc(-c2ccc(Cl)cc2)c1C(=O)O)c1nc2cccc(F)c2o1 [4-(4-chlorophenyl)-2-(7-fluorobenzo[d]oxazole-2-carboxamido)thiophene-3-carboxylic acid] | < 10 µM |
| O=C(Nc1scc(-c2ccc(Cl)cc2)c1C(=O)O)c1nc2cccc(F)c2s1 [4-(4-chlorophenyl)-2-(7-fluorobenzo[d]thiazole-2-carboxamido)thiophene-3-carboxylic acid] | < 10 µM |
| Cc1cccc2nc(C(=O)Nc3scc(-c4ccc(Cl)cc4)c3C(=O)O)oc12 [4-(4-chlorophenyl)-2-(7-methylbenzo[d]oxazole-2-carboxamido)thiophene-3-carboxylic acid] | < 10 µM |
| Cc1cccc2ncc(C(=O)Nc3scc(-c4ccc(Cl)cc4)c3C(=O)O)nc12 [4-(4-chlorophenyl)-2-(8-methylquinoxaline-2-carboxamido)thiophene-3-carboxylic acid] | < 10 µM |
| O=C(Nc1scc(-c2ccc(Cl)cc2)c1C(=O)O)c1cc2ccccc2nn1 [4-(4-chlorophenyl)-2-(cinnoline-3-carboxamido)thiophene-3-carboxylic acid] | < 10 µM |
| O=C(Nc1scc(-c2ccc(Cl)cc2)c1C(=O)O)c1ccco1 [4-(4-chlorophenyl)-2-(furan-2-carboxamido)thiophene-3-carboxylic acid] | < 10 µM |
| O=C(Nc1scc(-c2ccc(Cl)cc2)c1C(=O)O)c1ccc2nccn2c1 [4-(4-chlorophenyl)-2-(imidazo[1,2-a]pyridine-6-carboxamido)thiophene-3-carboxylic acid] | < 10 µM |
| O=C(Nc1scc(-c2ccc(Cl)cc2)c1C(=O)O)c1cn2ccsc2n1 [4-(4-chlorophenyl)-2-(imidazo[2,1-b]thiazole-6-carboxamido)thiophene-3-carboxylic acid] | < 10 µM |
